Assay results taken from patent US20230010110A1, “HISTATIN-1 FORMULATION FOR THE TREATMENT, REPAIR OR REGENERATION OF BONE TISSUE IN A SUBJECT” (UNIVERSIDAD DE CHILE, priority 2019, published 2023).
Entries after “also recorded” stand apart in the source; their conditions may differ.

How the values were obtained:
[1] = tested on: Alkaline Phosphatase (ALP) in SAOS-2 cells; experiment: alkaline phosphatase activity, p-nitrophenyl phosphate, absorbance at 405 nm; format: cell-based; details: SAOS-2, 10 μM, 24 and 48 h
Description: (§1) In (A) SAOS-2 and (B) MC3T3-E1 cells were incubated in the absence or presence of 10 μM Histatin-1 for 24 h, and whole cell lysates were analyzed by Western blotting of ALP. […] In (C) SAOS-2 cells were treated or not with 10 μM Histatin-1 for 24 and 48 h, and the activity of alkaline phosphatase (ALP) was measured by metabolization of the substrate p-nitrophenyl phosphate, following absorbance at 405 nm.
Representative Western blot images are shown, and relative levels of ALP were quantified by scanning densitometry and normalized to actin. Graphs represent the average from 3 independent experiments (mean±s.e.m.; *p<0.05). (C) SAOS 2 cells were treated or not with 10 μM Histatin 1 for 24 and 48 h, and the activity of alkaline phosphatase (ALP) was measured by metabolization of the substrate p-nitrophenyl phosphate, following absorbance at 405 nm. Data were averaged from 3 independent experiments and shown as residual activity (% increase with respect to the control condition; mean±s.e.m; *p<0.05).

endothelial cells = details: in vitro; cited from earlier work
[2] = tested on: Alkaline Phosphatase (ALP) in MC3T3-E1 cells; experiment: Western blot of alkaline phosphatase in whole cell lysates; format: cell-based; details: MC3T3-E1, 10 μM, 24 h
Description: as §1
(§2) By Western blot assay, the effect of Histatin-1 on the expression of two proteins involved in the osteogenesis process (alkaline phosphatase, β-catenin) was evaluated. For this, SAOS-2 or MC3T3-E1 cells were seeded on 60 mm plates, grown in complete medium supplemented with bovine serum for 24 h, washed with PBS and then incubated for 24 h with either serum-free medium or serum-free medium containing 10 μM Histatin-1. […] Bound first antibodies were detected with HRP-conjugated second antibodies and detected with the EZ-ECL system.
(§3) Representative Western blot images are shown, and relative levels of ALP were quantified by scanning densitometry and normalized to actin. […] (C) SAOS 2 cells were treated or not with 10 μM Histatin 1 for 24 and 48 h, and the activity of alkaline phosphatase (ALP) was measured by metabolization of the substrate p-nitrophenyl phosphate, following absorbance at 405 nm. […]

[3] = tested on: Alkaline Phosphatase (ALP) in SAOS-2 cells; experiment: as above; format: cell-based; details: SAOS-2, 10 μM, 24 h
Description: as §1, §2, §3

[4] = tested on: SAOS-2 osteosarcoma cells; experiment: Transwell cell migration assay; format: cell-based; details: SAOS-2, 10 μM, 60 min, Transwell coated with 2 μg/ml fibronectin
Description: (§4) For this, (A) SAOS 2 cells were collected, resuspended in serum-free medium either containing or not 10 μM Histatin-1, and incubated for 30 min. Cells were then allowed to attach to fibronectin coated plates (2 μg/ml) for 5, 10, 15, 30, 45 and 60 min in serum-free medium, containing or not 10 μM Histatin-1. Cell adhesion was detected by crystal violet staining and counting under an optic microscope. Representative images are shown for each time point, in the absence or presence of Histatin 1. […] (B, C and D) Cell migration was measured in Transwell chambers coated with 2 μg/ml fibronectin. Briefly, SAOS 2 (B), MC3T3 E1 cells (C) and APMCs (apical papilla mesenchymal cells, D) were allowed to migrate for 60 min in Transwell chambers, in the presence of 10 μM Histatin 1 or 10 μM of non-phosphorylated Histatin 1 (no P), 10 μM of a scramble sequence or vehicle control (H2O). Cells that migrated were visualized by crystal violet staining. Representative images are shown, and graphs represent the averages of 3 independent experiments (mean±s.e.m; *p<0.05; **p<0.01).

MC3T3-E1 pre-osteoblasts = experiment: Transwell cell migration assay; format: cell-based; details: MC3T3-E1, 10 μM, 60 min, Transwell coated with 2 μg/ml fibronectin
Description: as §4

[5] = tested on: apical papilla mesenchymal cells, APMCs; experiment: Transwell cell migration assay; format: cell-based; details: 10 μM, 60 min, Transwell coated with 2 μg/ml fibronectin
Description: as §4

[6] = tested on: SAOS-2 osteosarcoma cells; experiment: in vitro cell adhesion to fibronectin coated plates, crystal violet staining; format: cell-based; details: SAOS-2, 10 μM Histatin-1, fibronectin 2 μg/ml, 5-60 min, serum-free medium
Description: as §4

[7] = tested on: Runx2, osteocalcin, osteopontin and ALP mRNA in APMCs; experiment: RT qPCR of osteoblastic differentiation markers; format: cell-based; details: 10 μM, 7 days
Description: (§5) (A) MC3T3-E1 and (B) AMPCs cells were treated or not with 10 μM Histatin-1 for 7 days. Total RNA was extracted, for subsequent RT qPCR analysis of Runx2, osteocalcin, osteopontin and ALP.
(§6) To evaluate the differentiation towards bone lineage in the presence of Histatin-1, the expression of the osteocalcin, osteopontin, Runx2 and ALP gene were determined, as markers of differentiation, by means of a qPCR assay for mRNA content analysis. For this, osteoblasts-like cells and stem cells from the apical papilla were grown in complete medium supplemented with bovine serum, in the absence or presence of 10 μM Histatin-1 for 24 h. Total RNA was extracted with TRIZOL (Invitrogen, Life Technologies), following the manufacturer's instructions. For cDNA synthesis, samples were treated with RNase-Free DNase kit (#M6101 Promega), quantified and purity was verified for subsequent reverse transcription, using the cDNA Reverse Transcription Kit (Applied Biosystems). Alkaline phosphatase, osteocalcin, osteopontin, Runx2 and GAPDH were quantified by qRT-PCR (Applied Biosystems, ΔΔCt method).
(§7) Total RNA was extracted, for subsequent RT qPCR analysis of Runx2, osteocalcin, osteopontin and ALP. Relative abundance of all screened mRNAs was normalized to GAPDH, by using the ΔΔCT method. Graphs show data obtained by averaging 3 independent experiments (mean±s.e.m.; *p<0.05; **p<0.01).

[8] = tested on: Runx2, osteocalcin, osteopontin and ALP mRNA in MC3T3-E1 cells; experiment: RT qPCR of osteoblastic differentiation markers; format: cell-based; details: MC3T3-E1, 10 μM, 7 days
Description: as §5, §6, §7

SAOS-2 cells = experiment: in vitro mineralization test (alizarin red); format: cell-based; details: SAOS-2, 10 μM, 7 days
Description: (§8) The ability of Histatin-1 to stimulate the formation of calcium deposits was determined by the alizarin red staining test. For this, SAOS-2 cells, MC3T3-E1 preosteoblasts, stem cells from the apical papilla or dental pulp stem cells were grown in complete medium supplemented with bovine serum, in the absence or presence 10 μM Histatin-1 for 7 days. […] Cells were washed with PBS, fixed with 4% paraformaldehyde, and stained with Alizarin Red aqueous solution for 1 h. Finally, samples were washed with distilled water and subsequently with PBS. Calcium deposits were visualized in an optic microscope. Representative images are shown, and graphs represent the quantification of the amount of calcium deposits. Values are shown as the mean±s.e.m (*p<0.01; ***p<0.001).

MC3T3-E1 preosteoblasts = experiment: in vitro mineralization test (alizarin red); format: cell-based; details: MC3T3-E1, 10 μM, 7 days
Description: as §8

osteoblastic cells = details: zoledronic acid challenge; cited from earlier work
angiogenesis = details: in vivo; cited from earlier work
[9] = tested on: β-catenin in SAOS-2 cells; experiment: Western blot of β-catenin in whole cell lysates; format: cell-based; details: SAOS-2, 10 μM, 24 h
Description: (§9) In (A) SAOS-2 cells were incubated in the absence or presence of 10 μM Histatin-1 for 24 h, and whole cell lysates were prepared for Western blot analysis of β-catenin. […] In (B) SAOS-2 cells were incubated with Histatin-1 for 24 hours. Cells were then fixed, permeabilized and incubated with primary and secondary antibodies for subsequent immunofluorescence analysis of total and non-phosphorylated (transcriptionally active) β-catenin.
as §2
Representative Western blot images are shown, and relative levels of β catenin were quantified by scanning densitometry and normalized to actin. […] (B) SAOS 2 cells were treated or not with 10 μM Histatin 1 for 24 h, then fixed, permeabilized and analyzed incubated with primary and secondary antibodies for subsequent immunofluorescence analysis of total and non-phosphorylated (transcriptionally active) β-catenin. […]

[10] = tested on: β-catenin in SAOS-2 cells; experiment: immunofluorescence of total and non-phosphorylated β-catenin nuclear localization; format: cell-based; details: SAOS-2, 10 μM, 24 h
Description: as §9
Representative Western blot images are shown, and relative levels of β catenin were quantified by scanning densitometry and normalized to actin. Graphs represent the average from 3 independent experiments (mean±s.e.m.; *p<0.05). (B) SAOS 2 cells were treated or not with 10 μM Histatin 1 for 24 h, then fixed, permeabilized and analyzed incubated with primary and secondary antibodies for subsequent immunofluorescence analysis of total and non-phosphorylated (transcriptionally active) β-catenin. Left panels show representative confocal microscopy images of total and active β-catenin, whereas nuclei staining with DAPI was used as reference. […]
Alternatively, SAOS-2 cells grown on coverslips were fixed, permeabilized and analyzed for total and active β-catenin nuclear localization.

[11] = tested on: dental pulp mesenchymal cells; experiment: in vitro mineralization test (alizarin red); format: cell-based; details: dental pulp mesenchymal (stem) cells, 10 μM, 7 days
Description: as §8
(§10) The same procedure was performed on stem cells of the apical papilla and dental pulp.

[12] = tested on: stem cells from the apical papilla (APMCs); experiment: in vitro mineralization test (alizarin red); format: cell-based; details: 10 μM, 7 days
Description: as §8, §10

In the case of “Histatin-1: human salivary peptide of 38 amino acids, obtained by chemical synthesis, with the sequence SEQ ID NO. 1 (DSHEKRHHGYRRKFHEKHHSHREFPFYGDYGSNYLYDN; listed as Homo sapiens)”, the “activity of alkaline phosphatase (ALP)” value [1] is listed as “increases the activity of ALP”, the endothelial cell migration (endothelial cells) is listed as “stimulating endothelial cell migration” and the “formation of endothelial structures” value (endothelial cells) is listed as “formation of endothelial structures in vitro”. For the same substance, the “protein levels of ALP (Western blot, normalized to actin)” value [2] was “increases the protein levels of ALP”, the “protein levels of ALP (Western blot, normalized to actin)” value [3] was “increases the protein levels of ALP; also recorded: increased the production of this enzyme” and the cell migration [4] was “favors both cell adhesion and migration”. The cell migration (MC3T3-E1 pre-osteoblasts) was “favors both cell adhesion and migration”, the cell migration [5] was “favors both cell adhesion and migration” and the cell adhesion [6] was “favors both cell adhesion and migration”. For the same substance, the “mRNA of osteoblastic differentiation markers (Runx2, osteocalcin, osteopontin, ALP), normalized to GAPDH” value [7] was “increases the mRNA of different osteoblastic differentiation markers; also recorded: induces an increase in the relative abundance of mRNA”, the “mRNA of osteoblastic differentiation markers (Runx2, osteocalcin, osteopontin, ALP), normalized to GAPDH” value [8] was “increases the mRNA of different osteoblastic differentiation markers; also recorded: induces an increase in the relative abundance of mRNA” and the “calcium deposits / crystal nucleation sites (alizarin red)” value (SAOS-2 cells) was “increases the number of crystal nucleation sites; also recorded: increased staining of the culture with Alizarin Red”. The “calcium deposits / crystal nucleation sites (alizarin red)” value (MC3T3-E1 preosteoblasts) was “increases the number of crystal nucleation sites; also recorded: increased staining of the culture with Alizarin Red”, the “cell migration in cells challenged with zoledronic acid” value (osteoblastic cells) was “restored both cell migration and viability” and the “cell viability in cells challenged with zoledronic acid” value (osteoblastic cells) was “restored both cell migration and viability”. The angiogenesis (angiogenesis) was “angiogenesis in vivo”, the “protein levels of β-catenin (Western blot, normalized to actin)” value [9] was “increases the protein levels of β-catenin; also recorded: increases the expression of the protein” and the “nuclear localization of active (non-phosphorylated) β-catenin” value [10] was “increases the nuclear localization of total and active β-catenin”. The “nuclear localization of total β-catenin” value [10] was “increases the nuclear localization of total and active β-catenin”, the “calcium deposits / crystal nucleation sites (alizarin red)” value [11] was “increases the number of crystal nucleation sites; also recorded: stimulated the formation of calcium deposits” and the “calcium deposits / crystal nucleation sites (alizarin red)” value [12] was “increases the number of crystal nucleation sites; also recorded: stimulated the formation of calcium deposits”.
